Laboratory results from US8501806B2, “Methods for preventing or reducing colon carcinogenesis” (Nogra Pharma Limited, priority 2008, dated 2013).

Tests used:
HCT-116 cells = experiment: CFSE cell proliferation assay, HCT-116 cells; type: cell-based, human
Description: (§1) All reagents used in Examples 1-3 were from Sigma-Aldrich (Milan, Italy) unless specified. Compounds were dissolved as a 25 mM stock solution in culture medium, and the pH of the solution was adjusted to 7.4, if necessary, with NaOH. The human CRC cell lines, HCT-116 and HT-29 (expressing either wild-type or mutated p53 respectively), were maintained in McCoy's 5A supplemented with 10% fetal bovine serum (FBS), 1% penicillin/streptomycin, and 50 μg/ml gentamycin. The murine CRC cell line, CT26, was maintained in RPMI 1640 medium supplemented with 10% FBS and 1% penicillin/streptomycin.
For cell growth assays, serum-starved HCT-116, HT-29, and CT26 cells were plated in appropriate complete medium at 2×10^5 cells/ml/well in 6-well culture dishes and allowed to adhere overnight. Cells were then labeled with carboxyfluorescein diacetate succinimidyl ester (CFSE) (Invitrogen, Milan Italy) at 37° C. according to the manufacturer's instruction. After 30 minutes, the medium was removed and fresh media containing 0.05% bovine serum albumin (BSA), and increasing doses of 5-ASA or disclosed compounds were added. After 24 hours, cells were collected, washed twice with PBS 1×, and then incubated with 5 μg/ml of PI for 15 minutes, at 4° C. in the dark. CFSE and/or PI-positive cells were determined by flow cytometry (Becton Dickinson, FACSCalibur, Milan, Italy). To determine whether the negative effect of compound 14 (2-methoxy-5-amino-N-hydroxybenzamide) on proliferation was reversible, cells were cultured in the presence or absence of compound 14 (1.5 and 3 mM) for 24 hours (1st culture). Afterwards, cells were either left untreated or extensively washed and cultured with medium in the absence of compound 14 for additional 24 hours (2nd culture). The percentage of proliferating cells was then evaluated by flow cytometry.

HT-29 cells = experiment: CFSE cell proliferation assay, HT-29 cells; type: cell-based, human; details: FIG. 2; graded doses
Description: as §1
For cell growth assays, serum-starved HCT-116, HT-29, and CT26 cells were plated in appropriate complete medium at 2×10^5 cells/ml/well in 6-well culture dishes and allowed to adhere overnight. Cells were then labeled with carboxyfluorescein diacetate succinimidyl ester (CFSE) (Invitrogen, Milan Italy) at 37° C. according to the manufacturer's instruction. After 30 minutes, the medium was removed and fresh media containing 0.05% bovine serum albumin (BSA), and increasing doses of 5-ASA or disclosed compounds were added. […] CFSE and/or PI-positive cells were determined by flow cytometry (Becton Dickinson, FACSCalibur, Milan, Italy). […] The percentage of proliferating cells was then evaluated by flow cytometry.

[1] = test system: colonic IEL (intra-epithelial lymphocytes); experiment: Proliferation of normal colonic intra-epithelial lymphocytes (anti-CD3/CD28); type: cell-based; details: FIG. 4A; anti-CD3/CD28, graded doses, 48 hours
[2] = test system: established CT26-derived tumors; experiment: Growth of established CT26 xenografts; type: in vivo, Balb/c mice; details: FIG. 7D; subcutaneously 8 mg/kg mouse/day for 2 weeks from day 14
Description: CT26 cells (1×10^5 cells in 300 μl PBS 1×) were injected subcutaneously into the flank of Balb/c mice, whose fur was shaved and depilated. Five groups of 10 mice each were implanted with CT26. The first group received daily subcutaneously 300 μl PBS (control), the remaining groups received daily subcutaneously compound 14 at a final dose of 1, 4, 8, or 12 mg/kg/mouse dissolved in 300 μl PBS. Both compound 14 and PBS were administered starting on day 3. Further experimentation was performed to assess whether compound 14 had anti-cancer activity when administered systemically. […] Mice were monitored over the time for weight loss. After 2 weeks, mice were sacrificed, tumors were photographed, then excised and their mass calculated according to the following formula: ½×(short diameter)×(long diameter)×(height). Total extracts were prepared from xenografts and analyzed for cyclin D1 protein content by Western blotting using a commercially available antibody (Santa Cruz Biotechnology). […] After 2 weeks, mice with similar tumor size, determined by caliper measurements, were divided into three groups of 8 mice each. […] Mice were monitored over the time for weight loss. After 2 weeks, mice were sacrificed, tumors were photographed, then excised and their mass calculated as described above. […] Mice were monitored over the time and sacrificed at day 28.

4T1-derived tumors = experiment: 4T1 syngeneic tumor model; type: in vivo, Balb/c mice; details: FIG. 10; daily subcutaneous or intraperitoneal 8 mg/kg/mouse, starting day 3
Description: Eight- to 10-week-old female Balb/c mice were used for the 4T1 syngeneic tumor model. 4T1 cells (1×10^5 cells in 300 μl PBS 1×) were injected subcutaneously (s.c.) into the flank of mice, whose fur was shaved and depilated. Three groups of 8 mice each were implanted with 4T1. The first group received daily s.c. 300 μl PBS (control), the remaining groups were injected daily with compound 14 (8 mg/kg/mouse) s.c. or intraperitoneally (i.p.). Both compound 14 and PBS were administered starting on day 3. Mice were monitored over the time for weight loss and sacrificed at day 14. Tumors were photographed, and excised, and their mass calculated according to the following formula: ½×(short diameter)×(long diameter)×(height).

COc1ccc(N)cc1C(=O)NO [compound 14, 2-methoxy-5-amino-N-hydroxybenzamide]
anti-proliferative effect (percentage of growth inhibition) (HCT-116 cells; FIG. 1, CFSE-labeled HCT 116 cells, increasing doses): pronounced anti-proliferative effect | potency relative to 5-ASA in inhibiting CRC cell proliferation (HCT-116 cells; FIG. 1, CFSE-labeled HCT 116 cells, increasing doses, 24 hours): about ten times more potent than 5-ASA | proliferation of HCT-116 cells (HCT-116 cells; FIG. 2, graded doses): dose-dependently inhibited | time dependence of anti-proliferative effect (HCT-116 cells; FIG. 3A, increasing doses for 24, 48, and 72 hours): time-dependent | reversibility of anti-proliferative effect (HCT-116 cells; FIG. 3B, 1.5-3 mM for 24 hours, then washed and cultured 24 hours without compound): fully reversible | proliferation of HT-29 cells (HT-29 cells): dose-dependently inhibited | proliferation of normal colonic intra-epithelial lymphocytes [1]: did not affect | tumor size of established CT26-derived tumors vs PBS [2]: significantly reduced | 4T1-derived tumor mass in comparison to controls (4T1-derived tumors): significant decrease
